Test results as given in ChEMBL document CHEMBL1132165, “Analogues of neuroactive polyamine wasp toxins that lack inner basic sites exhibit enhanced antagonism toward a muscle-type mammalian nicotinic acetylcholine receptor” (J Med Chem, 1999).

What was measured:
Details in all cases: TE-671
[1] = target: Acetylcholine receptor subunit alpha (Homo sapiens) (UniProt P02708)
Description: Proteolytic properties against human muscle type nicotinic Acetylcholine receptor(nAchr) from TE671 cells, expressed as acidity constant (pKa1)

[2] = target: Acetylcholine receptor subunit alpha (Homo sapiens) (UniProt P02708); remark: listed apart in the source
Description: Proteolytic properties against human muscle type nicotinic Acetylcholine receptor(nAchr) from TE671 cells, expressed as acidity constant (pKa2)

[3] = target: Acetylcholine receptor subunit alpha (Homo sapiens) (UniProt P02708); remark: listed apart in the source
Description: Proteolytic properties against human muscle type nicotinic Acetylcholine receptor(nAchr) from TE671 cells, expressed as acidity constant (pKa3)

[4] = target: Acetylcholine receptor subunit alpha (Homo sapiens) (UniProt P02708); test: […] properties against human muscle type nicotinic Acetylcholine receptor (nAchr) from TE671 cells, expressed as acidity constant (pKa1); assay type: functional, cell-based

Acetylcholine receptor subunit alpha (Homo sapiens), sequence (P02708 whole entry): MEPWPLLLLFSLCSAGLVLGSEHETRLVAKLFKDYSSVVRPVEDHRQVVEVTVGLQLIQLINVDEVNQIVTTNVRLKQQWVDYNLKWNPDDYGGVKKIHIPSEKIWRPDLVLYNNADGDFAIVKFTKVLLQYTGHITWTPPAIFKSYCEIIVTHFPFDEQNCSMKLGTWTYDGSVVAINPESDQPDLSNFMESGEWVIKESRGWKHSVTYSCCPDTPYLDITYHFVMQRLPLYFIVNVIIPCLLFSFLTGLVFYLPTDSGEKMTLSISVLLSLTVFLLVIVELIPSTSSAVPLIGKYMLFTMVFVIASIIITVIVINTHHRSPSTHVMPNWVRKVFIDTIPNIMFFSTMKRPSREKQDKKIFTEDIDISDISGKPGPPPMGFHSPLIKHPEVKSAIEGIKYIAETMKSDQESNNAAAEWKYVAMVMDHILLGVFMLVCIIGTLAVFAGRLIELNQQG

| SMILES | pKa1 [1] | pKa2 [2] | pKa3 [3] | pKa1 [4] |
| --- | --- | --- | --- | --- |
| CCCC(=O)NC(Cc1ccc(O)cc1)C(=O)NCCCNCCCCCCCCN (stereo unspecified) | 9.71 | 10.4 | 11.3 | – |
| CCCC(=O)NC(Cc1ccc(O)cc1)C(=O)NCCCCCCCCNCCCN (stereo unspecified) | 9.32 | 10.2 | 11.4 | – |
| CCCC(=O)NC(Cc1ccc(O)cc1)C(=O)NCCCOCCCCNCCCN (stereo unspecified) | 9.23 | 10.3 | 11.3 | – |
| CCCC(=O)NC(Cc1ccc(O)cc1)C(=O)NCCCCCCCCCCCCN (stereo unspecified) | – | 11.3 | – | 10.3 |
| CCCC(=O)NC(Cc1ccc(O)cc1)C(=O)NCCCOCCCCOCCCN (stereo unspecified) | – | 10.9 | – | 10 |
| CCCC(=O)NC(Cc1ccc(O)cc1)C(=O)NCCCNCCCCOCCCN (stereo unspecified) | 9.47 | 10.2 | 10.9 | – |
